Test [1] deals with human IL-17A / human IL-17RA (Homo sapiens (Human), UniProt Q16552). Description: Human IL-17A biochemical assay (HTRF, blocking of IL-17A binding to IL-17RA). The conditions noted are these: 0.4 nM IL-17A, 0.3 nM IL-17RA, max compound concentration 10 uM. The essentials: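 0.4 nM hIL-17A + cpd (10 uM top, 2.7x, 10 pt), 3 h RT, HEPES pH 7.5 buffer w/ BSA, DTT, Tween 20; + 0.3 nM hIL-17RA 1 h RT; Tb/XL665 Abs 1 h; HTRF 620/665 ratio; 4PL IC50.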

Test [2] concerns IL-17-induced GROα secretion from HT-29 cells. As to the kind of experiment: GROα release assay in human colorectal adenocarcinoma epithelial cell (HT-29, ELISA). The class given is cell-based. Conditions: Homo sapiens, HT-29, 48 h, 10 ng/mL IL-17A, highest concentration 10 μM, read-out: Cellular assay HT29 cell/CXCL1 IC50. The essentials: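 HT-29 cells were exposed 48 h at 37°C to IL-17A (final 10 ng/mL) preincubated 15 min with compound (4-fold dilutions, top 10 μM). Secreted GROα was quantified by ELISA against a standard curve, and IC50 obtained by four-parameter fitting.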

Bounds are passed on as bounds.

Chain of human IL-17A / human IL-17RA (Q16552 24-155): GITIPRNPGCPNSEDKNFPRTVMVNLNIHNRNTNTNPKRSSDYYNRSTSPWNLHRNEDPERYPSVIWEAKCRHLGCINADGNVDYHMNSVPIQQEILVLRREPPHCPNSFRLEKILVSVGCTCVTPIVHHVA

As to `Cc1ccccc1NC(=O)C1(N2C[C@@H](C(C)C)NC2=O)Cc2ccc(NC(=O)[C@@H](NC(=O)c3nonc3C)C(C3CC3)C3CC3)cc2C1` (stereo partly drawn) [Example 261, N-((2S)-1,1-dicyclopropyl-3-((2-((R)-4-isopropyl-2-oxoimidazolidin-1-yl)-2-(o-tolylcarbamoyl)-2,3-dihydro-1H-inden-5-yl)amino)-3-oxopropan-2-yl)-4-methyl-1,2,5-oxadiazole-3-carboxamide], the values for the IC50 in test [1] and in test [2] were 58 nM and 143 nM, respectively.

For the molecule `Cc1nonc1C(=O)N[C@H](C(=O)Nc1ccc2c(c1)CC(C(=O)Nc1cccc(F)c1)(N1C[C@@H](C(C)C)NC1=O)C2)C1CCC(F)(F)CC1` (stereo partly drawn) [Example 243, N-((1S)-1-(4,4-difluorocyclohexyl)-2-((2-((3-fluorophenyl)carbamoyl)-2-((R)-4-isopropyl-2-oxoimidazolidin-1-yl)-2,3-dihydro-1H-inden-5-yl)amino)-2-oxoethyl)-4-methyl-1,2,5-oxadiazole-3-carboxamide], the IC50 in test [1] came out at 290 nM; in test [2], 317 nM.

On to `CC(C)[C@@H]1CN(C2(c3nc4ccccc4[nH]3)Cc3ccc(NC(=O)[C@@H](NC(=O)c4ccnn4C)C4CCCCC4)cc3C2)C(=O)N1` (stereo partly drawn) [Example 169, N-((1S)-2-((2-(1H-benzo[d]imidazol-2-yl)-2-((R)-4-isopropyl-2-oxoimidazolidin-1-yl)-2,3-dihydro-1H-inden-5-yl)amino)-1-cyclohexyl-2-oxoethyl)-1-methyl-1H-pyrazole-5-carboxamide], for which the figures for the IC50 in test [1] and in test [2] were 56.4 nM and 65.2 nM, respectively.

With `Cc1nonc1C(=O)N[C@H](C(=O)Nc1ccc2c(c1)CC(C(=O)NC1CCOC1)(N1C[C@@H](C(C)C)NC1=O)C2)C(C1CC1)C1CC1` (stereo partly drawn) [Example 280, N-((2S)-1,1-dicyclopropyl-3-((2-((R)-4-isopropyl-2-oxoimidazolidin-1-yl)-2-((tetrahydrofuran-3-yl)carbamoyl)-2,3-dihydro-1H-inden-5-yl)amino)-3-oxopropan-2-yl)-4-methyl-1,2,5-oxadiazole-3-carboxamide], the IC50 in test [1] came to 17.3 nM; in test [2], 48.1 nM.

Turning to `CNC(=O)C1(N2CC3(CC3)CNC2=O)Cc2ccc(NC(=O)[C@@H](NC(=O)c3ccnn3C)C(C3CC3)C3CC3)cc2C1` (stereo partly drawn) [Example 114, N-((2S)-1,1-dicyclopropyl-3-((2-(methylcarbamoyl)-2-(6-oxo-5,7-diazaspiro[2.5]octan-5-yl)-2,3-dihydro-1H-inden-5-yl)amino)-3-oxopropan-2-yl)-1-methyl-1H-pyrazole-5-carboxamide], the IC50 in test [1] amounted to 73.9 nM; in test [2], 57.2 nM.

As for `Cc1nonc1C(=O)N[C@H](C(=O)Nc1ccc2c(c1)CC(N1CC(C(F)(F)F)NC1=O)(C(C)(C)O)C2)C(C1CC1)C1CC1` (stereo partly drawn) [Example 279, N-((2S)-1,1-dicyclopropyl-3-((2-(2-hydroxypropan-2-yl)-2-(2-oxo-4-(trifluoromethyl)imidazolidin-1-yl)-2,3-dihydro-1H-inden-5-yl)amino)-3-oxopropan-2-yl)-4-methyl-1,2,5-oxadiazole-3-carboxamide], the IC50 in test [1] stood at 64.8 nM; in test [2], 69.1 nM.

On to `CNC(=O)C1(N2CC(C)NC2=O)Cc2cc(NC(=O)[C@@H](NC(=O)c3ccnn3C)C3CCCCC3)sc2C1` (stereo partly drawn) [Example 9, N-((1S)-1-cyclohexyl-2-((5-(4-methyl-2-oxoimidazolidin-1-yl)-5-(methylcarbamoyl)-5,6-dihydro-4H-cyclopenta[b]thiophen-2-yl)amino)-2-oxoethyl)-1-methyl-1H-pyrazole-5-carboxamide], for which the figures for the IC50 in test [1] and in test [2] were 8000 nM and greater than 10000 nM, respectively.

Turning to `Cc1nonc1C(=O)N[C@H](C(=O)Nc1ccc2c(c1)OC(CN1C[C@@H](C(C)C)NC1=O)C2)C(C1CC1)C1CC1` (stereo partly drawn) [Example 271, N-((2S)-1,1-dicyclopropyl-3-((2-(((R)-4-isopropyl-2-oxoimidazolidin-1-yl)methyl)-2,3-dihydrobenzofuran-6-yl)amino)-3-oxopropan-2-yl)-4-methyl-1,2,5-oxadiazole-3-carboxamide], the figures for the IC50 in test [1] and in test [2] were 268 nM and 1380 nM, respectively.

In the case of `CNC(=O)C1(N2CC(C(C)C)NC2=O)Cc2ccc(NC(=O)[C@@H](NC(=O)c3nonc3C)C3CCCCC3)cc2C1` (stereo partly drawn) [Example 30, N-((1S)-1-cyclohexyl-2-((2-(4-isopropyl-2-oxoimidazolidin-1-yl)-2-(methylcarbamoyl)-2,3-dihydro-1H-inden-5-yl)amino)-2-oxoethyl)-4-methyl-1,2,5-oxadiazole-3-carboxamide], the figures for the IC50 in test [1] and in test [2] were 58 nM and 576 nM, respectively.

With `CNC(=O)C1(N2CC3(CC3)CNC2=O)CCc2cc(NC(=O)[C@@H](NC(=O)c3ccnn3C)C3CCCCC3)sc2C1` (stereo partly drawn) [Example 145, N-((1S)-1-cyclohexyl-2-((6-(methylcarbamoyl)-6-(6-oxo-5,7-diazaspiro[2.5]octan-5-yl)-4,5,6,7-tetrahydrobenzo[b]thiophen-2-yl)amino)-2-oxoethyl)-1-methyl-1H-pyrazole-5-carboxamide], the IC50 came out at 139 nM in test [1] and 454 nM in test [2].

As to `Cc1nonc1C(=O)N[C@H](C(=O)Nc1ccc2c(c1)CC(C#N)(N1C[C@@H](C(C)C)NC1=O)C2)C(C1CC1)C1CC1` (stereo partly drawn) [Example 266, N-((2S)-1-((2-cyano-2-((R)-4-isopropyl-2-oxoimidazolidin-1-yl)-2,3-dihydro-1H-inden-5-yl)amino)-3,3-dicyclopropyl-1-oxopropan-2-yl)-4-methyl-1,2,5-oxadiazole-3-carboxamide], the figures for the IC50 in test [1] and in test [2] were 912 nM and 659 nM, respectively.

Consider `CC(C)n1nccc1C(=O)N[C@H](C(=O)Nc1ccc2c(c1)OC(CN1C[C@@H](C(F)(F)F)NC1=O)C2)C(C1CC1)C1CC1` (stereo partly drawn) [Example 256, N-((2S)-1,1-dicyclopropyl-3-oxo-3-((2-(((S)-2-oxo-4-(trifluoromethyl)imidazolidin-1-yl)methyl)-2,3-dihydrobenzofuran-6-yl)amino)propan-2-yl)-1-isopropyl-1H-pyrazole-5-carboxamide], for which the figures for the IC50 in test [1] and in test [2] were 50.2 nM and 82 nM, respectively.

Take `CNC(=O)C1(N2C[C@@H](C(C)C)NC2=O)Cc2ccc(NC(=O)C(NC(=O)c3ccnn3C)C3CCc4ccccc4C3)cc2C1` (stereo partly drawn) [Example 128, N-(2-((2-((R)-4-isopropyl-2-oxoimidazolidin-1-yl)-2-(methylcarbamoyl)-2,3-dihydro-1H-inden-5-yl)amino)-2-oxo-1-(1,2,3,4-tetrahydronaphthalen-2-yl)ethyl)-1-methyl-1H-pyrazole-5-carboxamide]: the IC50 in test [1] was 89.8 nM; in test [2], 277 nM.

As to `CNC(=O)C1(N2C[C@@H](C(C)C)NC2=O)Cc2ccc(NC(=O)C(NC(=O)c3ccnn3C)C3CCC(C)CC3)cc2C1` (stereo partly drawn) [Example 89, N-(2-((2-((R)-4-isopropyl-2-oxoimidazolidin-1-yl)-2-(methylcarbamoyl)-2,3-dihydro-1H-inden-5-yl)amino)-1-(4-methylcyclohexyl)-2-oxoethyl)-1-methyl-1H-pyrazole-5-carboxamide], the IC50 in test [1] stood at 18 nM; in test [2], 29.7 nM.

As to `CC(C)[C@@H]1CN(C2(C(=O)NC34CC5CC(CC(C5)C3)C4)Cc3ccc(NC(=O)[C@@H](NC(=O)c4ccnn4C)C4CCCCC4)cc3C2)C(=O)N1` (stereo partly drawn) [Example 155, N-((1S)-2-((2-(((3R,5R)-adamantan-1-yl)carbamoyl)-2-((R)-4-isopropyl-2-oxoimidazolidin-1-yl)-2,3-dihydro-1H-inden-5-yl)amino)-1-cyclohexyl-2-oxoethyl)-1-methyl-1H-pyrazole-5-carboxamide], the IC50 was determined as 129 nM in test [1] and 211 nM in test [2].

For `CNC(=O)C1(N2C[C@@H](C(C)C)NC2=O)Cc2ccc(NC(=O)[C@@H](NC(=O)c3ccnn3C)C3CCCCC3)cc2C1` (stereo partly drawn) [Example 39, N-((1S)-1-cyclohexyl-2-((2-((R)-4-isopropyl-2-oxoimidazolidin-1-yl)-2-(methylcarbamoyl)-2,3-dihydro-1H-inden-5-yl)amino)-2-oxoethyl)-1-methyl-1H-pyrazole-5-carboxamide], the IC50 was 22.6 nM in test [1] and 56.4 nM in test [2].

Turning to `Cn1nccc1C(=O)N[C@H](C(=O)Nc1ccc2c(c1)CC(N1CC3(CC3)CNC1=O)C2)C1CCCCC1` (stereo partly drawn) [Example 199, N-((1S)-1-cyclohexyl-2-oxo-2-((2-(6-oxo-5,7-diazaspiro[2.5]octan-5-yl)-2,3-dihydro-1H-inden-5-yl)amino)ethyl)-1-methyl-1H-pyrazole-5-carboxamide], the IC50 in test [1] was 570 nM; in test [2], 2770 nM.

Regarding `CC(C)[C@@H]1CN(C2(C(=O)N3CCC(O)C3)Cc3ccc(NC(=O)[C@@H](NC(=O)c4ccnn4C)C4CCCCC4)cc3C2)C(=O)N1` (stereo partly drawn) [Example 136, N-((1S)-1-cyclohexyl-2-((2-(3-hydroxypyrrolidine-1-carbonyl)-2-((R)-4-isopropyl-2-oxoimidazolidin-1-yl)-2,3-dihydro-1H-inden-5-yl)amino)-2-oxoethyl)-1-methyl-1H-pyrazole-5-carboxamide], the IC50 in test [1] stood at 108 nM; in test [2], 279 nM.

As to `CNC(=O)C1(N2C[C@@H](C(C)C)NC2=O)Cc2ccc(NC(=O)[C@@H](NC(=O)c3cccc(Cl)c3)C3CCCCC3)cc2C1` (stereo partly drawn) [Example 69, 5-((S)-2-(3-chlorobenzamido)-2-cyclohexylacetamido)-2-((R)-4-isopropyl-2-oxoimidazolidin-1-yl)-N-methyl-2,3-dihydro-1H-indene-2-carboxamide], the IC50 in test [1] came to 120 nM; in test [2], 432 nM.

These data come from patent publication US20250154138A1, “Small Molecule IL-17A Modulators” (BeiGene, Ltd., priority 2022, published 2025).
